The results in this text go back to PubChem BioAssay (NCI).

SMILES strings stand for the structures.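 Growth conditions: 96-well plates. Treatment: test compound, 48 hours, 5 concentrations. Analysis: linear interpolation between bracketing concentrations; unreached endpoints set to highest concentration. GI50: concentration for 50% inhibition of growth. TGI: concentration producing complete growth inhibition.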

What all share (assay): DTP human tumour cell line panel, 48 h
Test [1] concerns ACHN renal.
For test [2], the system named is HCC-2998 colon.
The subject of test [3] is HCT-116 colon.
Test [4] has as its system NCI-H23 lung.
Test [5] concerns OVCAR-4 ovarian.
The test system of test [6] is SF-539 CNS.
Test [7] relates to SK-MEL-2 melanoma.
In test [8] the test system is SNB-75 CNS.
Test [9] concerns DU-145 prostate.

Regarding `CCC/C(=N\NC(=O)c1cc2ccccc2cc1O)C(CC)C(=O)CCC(=O)N(Cc1ccccc1)Cc1ccccc1` (stereo unspecified), the TGI in [1], in [2], in [3], in [4], in test [5] and in test [6] was greater than 100 µM each time. Moreover, the TGI was 77.8 µM in [7] and greater than 100 µM in test [8].

As to `Cc1nn(-c2ccc(Br)cc2)c(C)c1CC(=O)c1cc(O)ccc1O`, the GI50 was 9.16 µM in [1]; 14.8 µM in test [9]; 12.6 µM in test [3]; 10.9 µM in [4]; 15.9 µM in test [5]; 11.5 µM in test [6]. Also, the GI50 in [7] is 23 µM; in [8], 10.8 µM. In addition, the total growth inhibition concentration (TGI) is 24.6 µM in test [1]; 44.6 µM in test [9]; greater than 50 µM in test [3]; 35.7 µM in test [4]; greater than 50 µM in [5]; 28 µM in [6]. Besides, the TGI in test [7] is greater than 50 µM; in test [8], 31.1 µM.

Turning to `Cc1cccc(NC(=O)CC#N)c1Cl`, the TGI in test [1], in test [3], in [4], in [6], in test [7] and in test [8] was greater than 100 µM throughout.

Take `CC(=O)OCC1OC(Sc2ccccn2)C=CC1OC(C)=O` (stereo unspecified): the TGI in test [1], in [2], in [3], in [4], in test [5] and in test [6] was greater than 100 µM each time. For the same molecule, in [8], the TGI was greater than 100 µM.

Consider `N#CC1=C(c2ccccc2)C(O)(c2ccccc2)NC1=O` (stereo unspecified), for which the TGI was greater than 100 µM in [1]; greater than 100 µM in [2]; greater than 100 µM in test [3]; greater than 100 µM in test [4]; greater than 100 µM in [5]; 63.3 µM in test [6]. The TGI in test [7] and in test [8] was greater than 100 µM throughout.

`BrC12c3ccccc3Sc3ccccc3C1(Br)c1ccccc12` (stereo unspecified): the TGI in test [1] was greater than 100 µM; in test [2], greater than 100 µM; in test [3], 52.1 µM; in test [5] it was greater than 100 µM; in test [6] it was 34.6 µM; in test [7] it was 34.5 µM. In test [8], this molecule registered a TGI of 95.8 µM.

For `O=c1/c(=C/c2ccc3c(c2)OCO3)sc2nnc(-c3ccco3)n12`, the concentration for total growth inhibition (TGI) in test [1], in test [2], in test [3], in test [4], in [5] and in test [6] was greater than 100 µM throughout. The figures for the total growth inhibition concentration (TGI) in test [7] and in [8] were greater than 100 µM and 71.2 µM, respectively.

For the molecule `COc1ccc(/C(C)=N/NC(N)=S)c(OC)c1`, the TGI in test [1], in [2], in test [3], in test [4], in test [6] and in test [7] was greater than 100 µM each time. Besides, in [8], the TGI was greater than 100 µM.

Take `CC(Oc1ccc2cc(C(=O)c3ccccc3)c(=O)oc2c1)C(=O)O` (stereo unspecified): the TGI in [1], in test [2], in test [3], in [4], in test [5] and in [6] was greater than 100 µM in each case. In test [8], this molecule came in with a TGI greater than 100 µM.

Take `COc1ccc(C(=O)O)c(Cc2ccc3ccccc3c2)c1`: the TGI in [1], in [3], in test [4], in test [5], in [6] and in [7] was greater than 100 µM each time. In [8], this molecule displayed a TGI greater than 100 µM.

As for `CC1=C(C(=O)Nc2ccccc2C)C(c2ccc(C3C(C(=O)Nc4ccccc4C)=CNC=C3C(=O)Nc3ccccc3C)cc2)C(C(=O)Nc2ccccc2C)=C(C)N1`, the TGI in [1] is 30.6 µM; in test [2], 31.8 µM; in test [3], greater than 49.7 µM; in test [4], 36.5 µM; in test [5], 22 µM; in test [6], 19.6 µM. In addition, the TGI is 31.6 µM in test [7] and 54.8 µM in [8].

For `c1ccc(C2N3CCCCC3[C@@H]3c4[nH]c5ccccc5c4CCN23)cc1` (stereo partly specified), the TGI in test [1] was greater than 100 µM; in test [2], greater than 100 µM; in [3], greater than 100 µM; in [4], greater than 100 µM; in test [5], 75.6 µM; in test [6], greater than 100 µM. In addition, the TGI in [7] and in test [8] was greater than 100 µM in each case.

For `O=CC1(C2(C=O)c3ccccc3-c3ccccc32)c2ccccc2-c2ccccc21`, the GI50 is 1.83 µM in test [1]; 2.29 µM in [9]; greater than 100 µM in [2]; 2.11 µM in [4]; 2.02 µM in test [5]; 2.01 µM in test [6]. The GI50 in test [7] was 2 µM; in test [8] it was 3.29 µM. The TGI is 4.19 µM in test [1]; 5.83 µM in [9]; greater than 100 µM in test [2]; 4.82 µM in test [4]; 5.26 µM in [5]; 4.37 µM in test [6]. Also, the concentration for total growth inhibition (TGI) in test [7] was 4.82 µM; in test [8], 8.08 µM.

Turning to `Oc1cc2c(cc1O)-c1[nH]ncc1CC2`, the TGI was greater than 100 µM in test [1]; 50.7 µM in [2]; greater than 100 µM in test [3]; greater than 100 µM in test [4]; greater than 100 µM in [6]; greater than 100 µM in [7]. Besides, the TGI in [8] stood at 70.5 µM.

For the molecule `CC(O[Si](C)(C)C)C1C=CC(C)n2c(=O)n(-c3ccccc3)c(=O)n21` (stereo unspecified), the TGI in test [2], in [3], in test [4], in [5], in test [6] and in test [7] was greater than 100 µM in each case.
